{"source": "patent US20040147441A1", "about": "“Methods and reagents for preventing bacteremias” (priority 2002, published 2004)", "origin": "cited, not measured here", "key": {"[1]": {"test_system": "S. aureus (methicillin resistant)"}, "[2]": {"test_system": "E. facium (multidrug resistant)", "conditions": "Mobarakai et al. 1994"}, "[3]": {"test_system": "S. pneumoniae (penicillin resistant)"}, "[4]": {"test_system": "E. faecalis (vancomycin susceptible)"}, "[5]": {"test_system": "E. facium (vancomycin resistant)"}, "[6]": {"test_system": "S. aureus (methicillin susceptible)", "conditions": "J. Antimicrob. Chemother. 48: 283-286, 2001"}, "[7]": {"test_system": "E. facium (vancomycin susceptible)"}, "[8]": {"test_system": "S. pneumoniae (penicillin susceptible)"}, "[9]": {"test_system": "E. faecalis (strains K-99-34, K-00-184, and K-00-221)", "conditions": "Rhee 2002"}, "S. aureus Strain Smith": {"test_system": "S. aureus Strain Smith", "conditions": "Mueller-Hinton Broth"}, "C. Difficile": {"test_system": "C. Difficile", "conditions": "Dong et al. 1987"}}, "data": [{"molecule": "teicoplanin", "values": [{"measurement": "MBC (minimal bactericidal concentration)", "setting": "[1]", "value": "8.0 to 16.0", "unit": "mg/L"}, {"measurement": "MIC (minimal growth inhibitory concentration)", "setting": "[1]", "value": "2.0 to 4.0", "unit": "mg/L"}, {"measurement": "MIC (minimal growth inhibitory concentration)", "setting": "[2]", "value": "MIC 8.0-1,024 μg/ml"}, {"measurement": "MBC (minimal bactericidal concentration)", "setting": "[3]", "value": "MIC = <0.03; MBC = <0.03 μg/ml"}, {"measurement": "MIC (minimal growth inhibitory concentration)", "setting": "[3]", "value": "MIC = <0.03; MBC = <0.03 μg/ml"}, {"measurement": "MBC (minimal bactericidal concentration)", "setting": "[4]", "value": "2.0 to 4.0", "unit": "mg/L"}, {"measurement": "MIC (minimal growth inhibitory concentration)", "setting": "[4]", "value": "> 0.25", "unit": "mg/L"}, {"measurement": "MBC (minimal bactericidal concentration)", "setting": "S. pyrogens", "value": "0.06 to 0.25", "unit": "mg/L"}, {"measurement": "MIC (minimal growth inhibitory concentration)", "setting": "S. pyrogens", "value": "0.03 to 0.06", "unit": "mg/L"}, {"measurement": "MBC (minimal bactericidal concentration)", "setting": "[5]", "value": "MIC = >16.0; MBC = >16.0 μg/ml"}, {"measurement": "MIC (minimal growth inhibitory concentration)", "setting": "[5]", "value": "MIC = >16.0; MBC = >16.0 μg/ml"}, {"measurement": "MBC (minimal bactericidal concentration)", "setting": "[6]", "value": "2.0 to 8.0", "unit": "mg/L"}, {"measurement": "MIC (minimal growth inhibitory concentration)", "setting": "[6]", "value": "0.5 to 4.0", "unit": "mg/L"}, {"measurement": "MBC (minimal bactericidal concentration)", "setting": "[7]", "value": "2.0 to 4.0", "unit": "mg/L"}, {"measurement": "MIC (minimal growth inhibitory concentration)", "setting": "[7]", "value": "0.25 to 0.5", "unit": "mg/L"}, {"measurement": "MBC (minimal bactericidal concentration)", "setting": "[8]", "value": "MIC = <0.03; MBC = <0.03 μg/ml"}, {"measurement": "MIC (minimal growth inhibitory concentration)", "setting": "[8]", "value": "MIC = <0.03; MBC = <0.03 μg/ml"}]}, {"molecule": "CC(C)C[C@@H]1NC(=O)[C@@H]2CCCN2C1=O", "note": "[Cyclo(leu-pro), cyclo-(Leu-Pro)]", "values": [{"measurement": "MIC (minimal growth inhibitory concentration)", "setting": "[9]", "value": "MIC = 12.5 μg/ml"}]}, {"molecule": "Zaomycin", "values": [{"measurement": "MIC (no CaCl2)", "setting": "S. aureus Strain Smith", "value": 10, "unit": "mg/L"}, {"measurement": "MIC (with CaCl2)", "setting": "S. aureus Strain Smith", "value": 1, "unit": "mg/L"}]}, {"molecule": "CN[C@H](CC(C)C)C(=O)N[C@H]1C(=O)N[C@@H](CC(N)=O)C(=O)N[C@H]2C(=O)N[C@H]3C(=O)N[C@H](C(=O)N[C@H](C(=O)O)c4cc(O)cc(O)c4-c4cc3ccc4O)[C@H](O[C@H]3C[C@](C)(N)[C@@H](O)[C@H](C)O3)c3ccc(c(Cl)c3)Oc3cc2cc(c3O[C@@H]2O[C@H](CO)[C@@H](O)[C@H](O)[C@H]2O[C@H]2C[C@](C)(NCc3ccc(-c4ccc(Cl)cc4)cc3)[C@@H](O)[C@H](C)O2)Oc2ccc(cc2Cl)[C@H]1O", "note": "[oritavancin]", "values": [{"measurement": "MBC (minimal bactericidal concentration)", "setting": "[1]", "value": "8.0 to 16.0", "unit": "mg/L"}, {"measurement": "MIC (minimal growth inhibitory concentration)", "setting": "[1]", "value": "2.0 to 4.0", "unit": "mg/L"}, {"measurement": "MBC (minimal bactericidal concentration)", "setting": "[3]", "value": "MIC = <0.03; MBC = <0.03 μg/ml"}, {"measurement": "MIC (minimal growth inhibitory concentration)", "setting": "[3]", "value": "MIC = <0.03; MBC = <0.03 μg/ml"}, {"measurement": "MBC (minimal bactericidal concentration)", "setting": "[4]", "value": "1.0 to 2.0", "unit": "mg/L"}, {"measurement": "MIC (minimal growth inhibitory concentration)", "setting": "[4]", "value": "0.5 to 1.0", "unit": "mg/L"}, {"measurement": "MBC (minimal bactericidal concentration)", "setting": "S. pyrogens", "value": "0.5 to 1.0", "unit": "mg/L"}, {"measurement": "MIC (minimal growth inhibitory concentration)", "setting": "S. pyrogens", "value": "0.12 to 0.25", "unit": "mg/L"}, {"measurement": "MBC (minimal bactericidal concentration)", "setting": "[5]", "value": "4.0 to 8.0", "unit": "mg/L"}, {"measurement": "MIC (minimal growth inhibitory concentration)", "setting": "[5]", "value": "1.0 to 2.0", "unit": "mg/L"}, {"measurement": "MBC (minimal bactericidal concentration)", "setting": "[6]", "value": "4.0 to 8.0", "unit": "mg/L"}, {"measurement": "MIC (minimal growth inhibitory concentration)", "setting": "[6]", "value": "2.0 to 4.0", "unit": "mg/L"}, {"measurement": "MBC (minimal bactericidal concentration)", "setting": "[7]", "value": "1.0 to 2.0", "unit": "mg/L"}, {"measurement": "MIC (minimal growth inhibitory concentration)", "setting": "[7]", "value": "0.12 to 0.25", "unit": "mg/L"}, {"measurement": "MBC (minimal bactericidal concentration)", "setting": "[8]", "value": "MIC = <0.03; MBC = <0.03 μg/ml"}, {"measurement": "MIC (minimal growth inhibitory concentration)", "setting": "[8]", "value": "MIC = <0.03; MBC = <0.03 μg/ml"}]}, {"molecule": "Aspartocin", "values": [{"measurement": "MIC (no CaCl2)", "setting": "S. aureus Strain Smith", "value": 2, "unit": "mg/L"}, {"measurement": "MIC (with CaCl2)", "setting": "S. aureus Strain Smith", "value": 1, "unit": "mg/L"}]}, {"molecule": "CCCCCCCCCC(=O)N[C@@H](Cc1c[nH]c2ccccc12)C(=O)N[C@H](CC(N)=O)C(=O)N[C@@H](CC(=O)O)C(=O)N[C@@H]1C(=O)NCC(=O)N[C@@H](CCCN)C(=O)N[C@@H](CC(=O)O)C(=O)N[C@H](C)C(=O)N[C@@H](CC(=O)O)C(=O)NCC(=O)N[C@H](CO)C(=O)N[C@@H]([C@H](C)CC(=O)O)C(=O)N[C@@H](CC(=O)c2ccccc2N)C(=O)O[C@@H]1C", "note": "[daptomycin]", "values": [{"measurement": "MIC (minimal growth inhibitory concentration)", "setting": "[2]", "value": "MIC = 2.0-4.0 μg/ml"}, {"measurement": "MIC (minimal growth inhibitory concentration)", "setting": "C. Difficile", "value": "MIC = 16.0 μg/ml"}, {"measurement": "MIC (no CaCl2)", "setting": "S. aureus Strain Smith", "value": 1, "unit": "mg/L"}, {"measurement": "MIC (with CaCl2)", "setting": "S. aureus Strain Smith", "value": 0.5, "unit": "mg/L"}]}, {"molecule": "Laspartomycin", "values": [{"measurement": "MIC (no CaCl2)", "setting": "S. aureus Strain Smith", "value": 16, "unit": "mg/L"}, {"measurement": "MIC (with CaCl2)", "setting": "S. aureus Strain Smith", "value": 2, "unit": "mg/L"}]}]}
